Measured values: patent publication US4151280A, “Pyrroloquinoxalines” (Roussel Uclaf, priority 1977, dated 1979)
Like-named read-outs stand apart in the source and are kept apart here.

Tested on: passive cutaneous anaphylaxis
Test: Passive cutaneous anaphylaxis (PCA) in rats;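 note: male rats, challenged with antigen plus Evans blue three days post sensitization, killed 30 min later, dorsal skin bluing graded on a five point scale, summed over four sites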
Assay type: in vivo
Settings: dosed immediately prior to intravenous challenge, rats sensitized intradermally with anti-ovalbumen antiserum; for ED50: Rattus norvegicus
[1] = po, read-out: ED 50 p.o. (dose of drug giving 50% inhibition), p.o.
[2] = read-out: ED 50 i.v. (dose of drug giving 50% inhibition), i.v.

Method: Cutaneous anaphylaxis can be induced in rats by intradermal (ID) sensitization with antiserum followed three days later by systemic challenge with antigen. Evans blue dye injected with the antigen is used as a marker to assess the severity of the local response. […] Brown: Pergamon Press: --male rats weighing 180-220 grams are used in groups of seven.
Preparation of Antigen for Sensitization (Alum precipitated ovalbumen)
Wash 120 grams of Al(OH)3 in 140 ml of saline (use of a macerater facilitates mixing).
Centrifuge at 3,000 r.p.m. for about 10 minutes.
Resuspend the precipiate with 300 ml of albumen egg powder (1.3 mg/ml) in saline and allow to stand for 30 minutes.
Centrifuge at 3,000 r.p.m. for 10 minutes.
Weigh the wet precipitate and to each gram weight add 1 ml of saline. Store in refrigerator (Quantity sufficient for 60 rats for a 3 day sensitization program).
Preparation of Antiserum (anti-ovalbumen)
1 ml of the alum precipitated ovalbumen was injected subcutaneously into rats weighing 180-200 grams on days 0,2,4. The rats were bled on day 14 either by cardiac puncture or via the dorsal abdominal aorta. Equal quantities of serum from each animal were pooled and thoroughly mixed and 2 ml aliquots were stored at -20° C. in plastic tubes.
The animals were then left for a period of three days to develop sensitization.
The injections were speeded up by using an automatic 1 ml self-filling glass syringe. The "challenged" rats were killed after 30 minutes, usually pithed) and their skin on the dorsal surface was removed. The degree and area of blueing, proportional to the anaphylactic reaction was assessed on a five point scoring system.
Total scores for sites 1,2,3 and 4=X
2. mean value of X for each group=X

| Compound | ED50 [1] | ED50 [2] | ED 50 i.v. (dose of drug giving 50% inhibition) (i.v.) | ED 50 p.o. (dose of drug giving 50% inhibition) (p.o.) |
| --- | --- | --- | --- | --- |
| CCn1c(=O)c2cc(C(=O)O)cn2c2cc(Cl)ccc21 [24(d), 8-chloro-5-ethyl-4,5-dihydro-4-oxo-pyrrolo[1,2-a]quinoxaline-2-carboxylic acid] | 0.29 mg/kg | 0.035 mg/kg | – | – |
| CCCCCn1c(=O)c2cc(C(=O)O)cn2c2ccccc21 [Example 17, 5-n-pentyl-4,5-dihydro-4-oxo-pyrrolo[1,2-a]quinoxaline-2-carboxylic acid] | 0.31 mg/kg | 0.087 mg/kg | – | – |
| CC(C)n1c(=O)c2cc(C(=O)O)cn2c2ccccc21 [Example 18, 5-isopropyl-4,5-dihydro-4-oxo-pyrrolo[1,2-a]quinoxaline-2-carboxylic acid] | – | 0.85 mg/kg | – | – |
| CCCn1c(=O)c2cc(C(=O)O)cn2c2ccccc21 [Example 15, 5-n-propyl-4,5-dihydro-4-oxo-pyrrolo[1,2-a]quinoxaline-2-carboxylic acid] | 0.032 mg/kg | 0.019 mg/kg | – | – |
| CCCCn1c(=O)c2cc(C(=O)OCC)cn2c2ccccc21 [Example 5, ethyl 5-n-butyl-4,5-dihydro-4-oxo-pyrrolo[1,2-a]quinoxaline-2-carboxylate] | 4.1 mg/kg | – | – | – |
| Cn1c(=O)c2cc(C(=O)O)cn2c2ccccc21 [Example 12, 5-methyl-4,5-dihydro-4-oxo-pyrrolo[1,2-a]quinoxaline-2-carboxylic acid] | 0.54 mg/kg | 0.089 mg/kg | – | – |
| CCOC(=O)c1cc2c(=O)n(C)c3ccccc3n2c1 [Example 1, ethyl 5-methyl-4,5-dihydro-4-oxo-pyrrolo[1,2-a]quinoxaline-2-carboxylate] | 7 mg/kg | – | – | – |
| O=C(O)c1cc2c(=O)n(C3CCCC3)c3ccccc3n2c1 [Example 20, 5-cyclopentyl-4,5-dihydro-4-oxo-pyrrolo[1,2-a]quinoxaline-2-carboxylic acid] | – | 0.37 mg/kg | – | – |
| O=C(O)c1cc2c(=O)n(-c3ccccc3)c3ccccc3n2c1 [Example 13, 5-phenyl-4,5-dihydro-4-oxo-pyrrolo[1,2-a]quinoxaline-2-carboxylic acid] | 19 mg/kg | 1.57 mg/kg | – | – |
| CCn1c(=O)c2cc(C(=O)O)cn2c2ccccc21 [Example 14, 5-ethyl-4,5-dihydro-4-oxo-pyrrolo[1,2-a]quinoxaline-2-carboxylic acid] | 0.035 mg/kg | 0.026 mg/kg | – | – |
| 5-n-butyl-7-(and 8)-nitro-4,5-dihydro-4-oxo-pyrrolo[1,2-a]quinoxaline-2-carboxylic acid [23(c)] | – | – | 0.025 mg/kg | 0.26 mg/kg |
| CCCCn1c(=O)c2cc(C(=O)O)cn2c2cc(Cl)ccc21 [Example 21, 5-n-butyl-8-chloro-4,5-dihydro-4-oxo-pyrrolo[1,2-a]quinoxaline-2-carboxylic acid] | 0.114 mg/kg | 0.019 mg/kg | – | – |
| CCCCn1c(=O)c2cc(C(=O)O)cn2c2cc(Cl)c(Cl)cc21 [Example 22, 5-n-butyl-7,8-dichloro-4,5-dihydro-4-oxo-pyrrolo[1,2-a]quinoxaline-2-carboxylic acid] | 0.117 mg/kg | 0.014 mg/kg | – | – |
| C=CCn1c(=O)c2cc(C(=O)O)cn2c2ccccc21 [Example 19, 5-allyl-4,5-dihydro-4-oxo-pyrrolo[1,2-a]quinoxaline-2-carboxylic acid] | 0.28 mg/kg | 0.035 mg/kg | – | – |
| CCCCn1c(=O)c2cc(C(=O)O)cn2c2ccccc21 [Example 16, 5-n-butyl-4,5-dihydro-4-oxo-pyrrolo[1,2-a]quinoxaline-2-carboxylic acid] | 0.058 mg/kg | 0.019 mg/kg | – | – |
